Source: patent US8258257B2 (The Regents of the University of California, priority 2008, dated 2012)
“Also recorded” adds a separate entry of the source. Where no end group is shown, it is not given here.

How the values were obtained:
[1] = molecular target: GST-Cldn4.Ecl2 (R4) (Mus musculus, UniProt O35054); type: binding; settings: for Kd: read-out: calculated equilibrium affinity (KD)
[2] = molecular target: T1, Cldn-4 Mutant R4 (Mus musculus, UniProt O35054); experiment: Kd (1/s)
T1 construct: made in house; host or cells: E. coli BL21 (pLysS)
Protocol: (§1) Table printed on a drawing sheet, FIGURE 3
(§2) Title: Binding Kinetics of Various Peptides to Cldn-4 Mutant R4
Head of the field: Kd (1/s)
(§3) The processed specific binding sensorgrams are presented for each ligand. The 50 nM analyte concentration was repeated twice to confirm reproducibility. The binding kinetics was analyzed by “BIAevalution 3.1” software with 1:1 (langmuir) binding mode, and the binding constants were summarized in the table.
(§4) First copying reader's note: Panel B of FIGURE 3; panel A is a sensorgram plot and is left out.
(§5) Where the first naming reader finds the target: table_title: Binding Kinetics of Various Peptides to Cldn-4 Mutant R4

[3] = molecular target: T1, Cldn-4 Mutant R4; experiment: KD (nM)
Protocol: as §1, §2
Head of the field: KD (nM)
as §3, §4, §5

[4] = molecular target: Claudin-4 Ecl2 domain (synthetic biotinylated peptide) (Mus musculus, UniProt O35054); type: binding
[5] = molecular target: GST protein (Schistosoma japonicum, UniProt P08515); type: binding
[6] = molecular target: T1, Cldn-4 Mutant R4

T1 sequence (O35054 117-181, change not shown): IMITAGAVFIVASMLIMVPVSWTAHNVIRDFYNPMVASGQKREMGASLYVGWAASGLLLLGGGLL
Sequence of GST protein (P08515 whole entry, looked up): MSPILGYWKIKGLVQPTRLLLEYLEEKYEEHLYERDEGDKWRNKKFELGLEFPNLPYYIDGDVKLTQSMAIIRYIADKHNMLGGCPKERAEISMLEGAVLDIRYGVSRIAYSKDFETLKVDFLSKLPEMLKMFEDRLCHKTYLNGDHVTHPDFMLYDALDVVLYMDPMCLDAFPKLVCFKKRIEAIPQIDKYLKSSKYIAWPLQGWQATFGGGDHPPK

## APWTEHSYYLSL [CC4P-13R]
[1]
  off-rate: slowest off-rate

## APWTEHSYYLSL [CC4P-13] [listing 1 of 2 here]
[2]
  Kd: 0.000742 s⁻¹

## APWTEHSYYLSL [CC4P-13] [listing 2 of 2 here]
[1]
  KD (stated in words): nanomolar level
  specific binding to Cldn4 Ecl2 (GST-Cldn4.R4): clear specific binding; also recorded: orientation of biotinylation did not affect the binding; also recorded: significant affinity

## ASNSSYSGNYSIL [Cpe30 MT3]
[1]
  specific binding to Cldn4 Ecl2 (GST-Cldn4.R4): did not bind

## NSSYSGNYPYSILFQKF [Cpe17, NSSYSGNYPYSILFQKF]
[1]
  off-rate: slightly slower off-rate
  on-rate: similar
  specific binding to Cldn4 Ecl2 (GST-Cldn4.R4): strong specific binding
  Kd: 1.57 nM
[3]
  Kd: 2.12 nM

## SLDAGQYVLVMKANSSYSGNYPYSILFQKF [Cpe30] [listing 1 of 2 here]
[1]
  on-rate: similar
  specific binding to Cldn4 Ecl2 (GST-Cldn4.R4): optimal binding activity; also recorded: strong specific binding
  Kd: 2.56 nM
[4]
  binding to lariat Ecl2 (cyclic, disulfide bond): failed to bind
  binding to linear B-Ecl2 peptide: No specific binding
  binding to tethered Ecl2 (B-Ecl2-B, biotin at both termini): failed to bind
[5]
  binding to GST protein only: did not bind

## SLDAGQYVLVMKANSSYSGNYPYSILFQKF [Cpe30] [listing 2 of 2 here]
[6]
  Ka: 130000 M⁻¹ s⁻¹

## SPWSEPAYTLAP [CC4P-5] [listing 1 of 2 here]
[6]
  Ka: 315000 M⁻¹ s⁻¹
[2]
  Kd: 0.00141 s⁻¹

## SPWSEPAYTLAP [CC4P-5] [listing 2 of 2 here]
[1]
  KD (stated in words): nanomolar level
  specific binding to Cldn4 Ecl2 (GST-Cldn4.R4): clear specific binding; also recorded: significant affinity

## SSYSGNYPYSIL [Cpe30 MT1]
[1]
  specific binding to Cldn4 Ecl2 (GST-Cldn4.R4): no specific binding; also recorded: did not bind

## VTHKTCPPACWP [CC4P-2]
[1]
  specific binding to Cldn4 Ecl2 (GST-Cldn4.R4): no specific binding
